For this assay, the system named is HIV-1 Lai (subtype B, X4). Briefly: In vitro testing of antiviral activity in the HeLa-P4 assay (β-Galactosidase reporter, luminescence). It is filed as cell-based. As for the experimental part: • Viruses: HIV-1 Lai (subtype B, X4); titer: 8 x 10^4/ml; 20 µl/batch • Cells: HeLa-P4; 2.5 x 10^4/batch
HeLa-P4 cells (from NIH AIDS Research and Reference Program) are a cell line, which was transfected with genes for the human CD4- and […] receptor and which are therefore infectable with HIV-1 (the CXCR4-receptor is expressed on the cells). For quantification of the HIV infection, the cells carry a reporter gene, i.e. β-Galactosidase gen, which is under control of the HIV-1 promoter. After infection, the Tat-protein of HIV-1 transactivates the reporter gene and the degree of infection can be quantified by measurement of the enzyme activity in the lysate of the cells. An inhibition of HIV-1 infection results in a reduction of the β-Galactosidase activity with respect to the infection with viruses without substance addition. The background is defined by measuring the enzyme activity in cells, to which no virus was added. Since in principle a lower infection may also be based on toxic effects of the substances to the cells, in addition to said assay a cytotoxicity assay is also carried out.
The test substances are prepared by adding 1 mg of each extract/concentrate in an Eppendorf vial and dissolving the sample in 1 ml of RPMI medium. The solution is filtered under sterile conditions and placed in a new Eppendorf vial. As a positive control, the T20-peptide (a known HIV-1 entry inhibitor; Enfuvirtide) is used. Dilution series of the test compounds alone, combinations thereof as well as of T20 in cell culture medium were prepared, wherein the samples have concentrations of 5, 10, 25, and 50 µg/ml for Marrubium vulgare, Cistus incanus and Ribes nigrum and combinations of extracts of Marrubium vulgare and Cistus incanus, and Marrubium vulgare and Ribes nigrum. For Marrubium vulgare, Borago officinalis and combinations of extracts of Marrubium vulgare and Borago officinalis concentrations of 5 and 50 µg/ml were tested. The given concentrations in the combinations relate to the concentration of each single extract, e.g. a concentration of 5 µg/ml means 5 µg/ml of Marrubium vulgare and 5 µg/ml of the extract of the other plant (Cistus incanus, Ribes nigrum, Borago officinalis).
The positive control T20 is used in concentrations of 100 and 200 nM. Each of the substance concentrations was tested in triplicates.
Day 1: Each of the substance dilutions of Marrubium vulgare (5, 10, 25, 50, […]), Ribes nigrum (5, 10, 25, and 50 µg/ml), Cistus incanus (5, 10, 25, and 50 µg/ml) and Borago officinalis (5 and 50 µg/m) is mixed with 20 µl of the HIV-1 Lai virus stock (titer 8x10^4/ml), vortexed, and pre-incubated at 37 °C for 30 minutes. The virus/substance mixture is added to 2.5 x 10^4 HeLa-P4 cells corresponding to an m.o.i. of 0.06, vortexed and incubated for 2 h at 37 °C. Afterwards the supernatant is removed, the cells are washed with medium and 100 µl of fresh medium is added. The cells are incubated for 2 days at 37 °C.
Accordingly, each of the substance dilutions of combinations of Marrubium vulgare and Ribes nigrum (5, 10, 25, and 50 µg/ml), Marrubium vulgare and Cistus incanus (5, 10, 25, and 50 µg/ml) and Marrubium vulgare and Borago officinalis (5 and 50 µg/ml) is mixed with 20 µl of the HIV-1 Lai virus stock (titer 8x10^4/ml), vortexed, and pre-incubated at 37 °C for 30 minutes. The virus/substance mixture is added to 2.5 x 10^4 HeLa-P4 cells, vortexed and incubated for 2 h at 37 °C. Afterwards the supernatant is removed, the cells are washed with medium and 100 µl of fresh medium is added. The cells are incubated for 2 days at 37 °C.
Day 3: The supernatant is removed, the cells are washed with 100 µl of medium and lysed in 50 µl of lysis buffer per each well (2.5 ml glycerol; 1.25 ml MES-Tris, 25 µl 1 M DTT, 250 µl Triton X100, H2O ad 25 ml) for 10 minutes on ice and removed at -80 °C. […]

1 substance from patent EP2846814B1, “COMPOSITION FOR THE PREVENTION AND TREATMENT OF VIRAL INFECTIONS CAUSED BY RETROVIRUSES” (Pandalis, Georgios, priority 2012, dated 2013) can be followed below.

As for Enfuvirtide [T20], where the note is “100 nM”, the “LU (luminescence units) Average” value is given as 16893 LU, the “LU (luminescence units) Trial 1” value came out at 23855 LU, the “LU (luminescence units) Trial 2” value is listed as 13888 LU and the “LU (luminescence units) Trial 3” value was determined as 12937 LU. Besides, where the note is “200 nM”, the “LU (luminescence units) Average” value is 8802 LU, the “LU (luminescence units) Trial 1” value amounted to 9407 LU, the “LU (luminescence units) Trial 2” value is given as 7531 LU and the “LU (luminescence units) Trial 3” value worked out at 9468 LU.
